Data reported in patent US10472320B2, “Process to prepare phenolic ethylenediamine diacetic acid compounds” (Akzo Nobel Chemicals International B.V., priority 2015, dated 2019).

Conditions: for appearance of extracted aqueous ligand solution (precipitate formation): after last methyl isobutyl ketone extraction; for concentration of o,o-HBED at which a clear solution was obtained after addition of water: dilution with water after precipitation; for concentration of o,o-HBED at which a clear solution was obtained after addition of water / concentration of o,o-HBED in the extracted aqueous ligand solution: expressed as H4-o,o-HBED; for concentration of o,o-HBED in the extracted aqueous ligand solution: after phenol extraction with methyl isobutyl ketone
Method: (§1) Phenol was extracted from the reaction mixture with methyl isobutyl ketone (250 ml and 3 times 125 ml).
as §1
(§2) Phenol was extracted from the reaction mixture with methyl isobutyl ketone (75 ml and 3 times 50 ml).
(§3) Phenol was extracted from the reaction mixture with methyl isobutyl ketone (100 ml and 3 times 50 ml).
as §3, §2
Phenol was extracted from the reaction mixture with methyl isobutyl ketone (85 ml and 3 times 50 ml).
as §2

| Structure (SMILES) | appearance of extracted aqueous ligand solution (precipitate formation) | concentration of o,o-HBED at which a clear solution was obtained after addition of water | concentration of o,o-HBED in the extracted aqueous ligand solution |
| --- | --- | --- | --- |
| O=C(O)CN(CCN(CC(=O)O)Cc1ccccc1O)Cc1ccccc1O [Comparative Example 3, N,N′-di(2-hydroxybenzyl)ethylenediamine-N,N′-diacetic acid, reference compound] | turned turbid and a lot of product precipitated |  |  |
| O=C(O)CN(CCN(CC(=O)O)Cc1ccccc1O)Cc1ccccc1O [Comparative Example 2, N,N′-di(2-hydroxybenzyl)ethylenediamine-N,N′-diacetic acid, reference compound] | turned turbid and a lot of product precipitated | 9.6% |  |
| O=C(O)CN(CCN(CC(=O)O)Cc1ccccc1O)Cc1ccccc1O [Example 4, N,N′-di(2-hydroxybenzyl)ethylenediamine-N,N′-diacetic acid] | remained clear without the formation of any precipitates |  | approximately 22% |
| O=C(O)CN(CCN(CC(=O)O)Cc1ccccc1O)Cc1ccccc1O [Example 5, N,N′-di(2-hydroxybenzyl)ethylenediamine-N,N′-diacetic acid] | remained clear without the formation of any precipitates |  | approximately 22% |
| O=C(O)CN(CCN(CC(=O)O)Cc1ccccc1O)Cc1ccccc1O [Example 7, N,N′-di(2-hydroxybenzyl)ethylenediamine-N,N′-diacetic acid] | remained clear without the formation of any precipitates |  | approximately 25% |
| O=C(O)CN(CCN(CC(=O)O)Cc1ccccc1O)Cc1ccccc1O [Example 3, N,N′-di(2-hydroxybenzyl)ethylenediamine-N,N′-diacetic acid] | became slightly turbid, but the solution could still be handled easily |  | approximately 22% |
| O=C(O)CN(CCN(CC(=O)O)Cc1ccccc1O)Cc1ccccc1O [Example 6, N,N′-di(2-hydroxybenzyl)ethylenediamine-N,N′-diacetic acid] |  |  | approximately 22% |
| O=C(O)CN(CCN(CC(=O)O)Cc1ccccc1O)Cc1ccccc1O [Comparative Example 1, N,N′-di(2-hydroxybenzyl)ethylenediamine-N,N′-diacetic acid, reference compound] | soon a large amount of precipitate was formed | approximately 6.2% |  |
| O=C(O)CN(CCN(CC(=O)O)Cc1ccccc1O)Cc1ccccc1O [Example 1, N,N′-di(2-hydroxybenzyl)ethylenediamine-N,N′-diacetic acid] |  |  | approximately 26% |
| O=C(O)CN(CCN(CC(=O)O)Cc1ccccc1O)Cc1ccccc1O [Example 2, N,N′-di(2-hydroxybenzyl)ethylenediamine-N,N′-diacetic acid] | became slightly turbid, but the solution could still be handled easily |  | approximately 23% |
